What follows are compounds tested against T1, MeCP2-TBL1 interaction (MeCP2-SmBiT / TBL1-LgBiT) (Mus musculus, UniProt Q9QXE7) (assay: MeCP2-TBL1 NanoLuc luciferase complementation assay (cell-free, extracts of transfected HEK293 cells)). Settings: 20 µM, n = 7, t-test.
T1 construct: expressed in transfected cells; crude lysate used as a cell-free assay
T1 sequence (Q9QXE7 166-527): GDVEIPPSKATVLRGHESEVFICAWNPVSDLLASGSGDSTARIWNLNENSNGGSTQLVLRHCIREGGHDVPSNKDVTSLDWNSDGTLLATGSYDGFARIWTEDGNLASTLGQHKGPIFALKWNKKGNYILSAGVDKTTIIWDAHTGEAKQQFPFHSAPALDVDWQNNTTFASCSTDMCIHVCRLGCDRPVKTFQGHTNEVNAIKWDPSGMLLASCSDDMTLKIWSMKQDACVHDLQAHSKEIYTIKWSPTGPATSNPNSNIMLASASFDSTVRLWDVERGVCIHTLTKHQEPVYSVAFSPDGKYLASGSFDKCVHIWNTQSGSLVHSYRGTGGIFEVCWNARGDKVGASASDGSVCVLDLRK
Type: binding, human
Method in brief: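 Cell-free split NanoLuc: lysate of HEK293 cells co-expressing the MeCP2 C-terminal half-SmBiT and TBL1 WD domain-LgBiT, mixed 1:1 with furimazine. After 30 min at room temperature, luminescence was plate-median normalized.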
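For Inhibition percent in this document: each compound tested at 20 µM final concentration.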

| Structure (SMILES) | inhibition in MeCP2-TBL1 assay compared with control PKA-based assay, individual validation |
| --- | --- |
| CN(C)Cc1cccc(N/C(=C2\C(=O)Nc3cc(C(=O)N(C)C)ccc32)c2ccccc2)c1 [BIX02189, reference compound] | did not have a statistically different effect |

Same assay, conditions: 0.3–60 μM, PKA-based assay run in parallel

| Structure (SMILES) | separation between MeCP2-TBL1 inhibition and inhibition of the PKA control in dose response |
| --- | --- |
| CN(C)Cc1cccc(N/C(=C2\C(=O)Nc3cc(C(=O)N(C)C)ccc32)c2ccccc2)c1 [BIX02189, reference compound] | only modest selectivity |

Same assay, conditions: ApexBio library screen, 20 µM, threshold SSMD* ≥ 3; read-out: inhibition in MeCP2-TBL1 assay after adjusting for activity in the PRKACA-PRKAR2A assay

| Structure (SMILES) | inhibition at 20 µM |
| --- | --- |
| CN(C)Cc1cccc(N/C(=C2\C(=O)Nc3cc(C(=O)N(C)C)ccc32)c2ccccc2)c1 [BIX02189, reference compound] | ≥ 35% |

Same assay, conditions: dose response 0.3–60 μM, triplicate, 30 min, luminescence normalized to DMSO; read-out: IC50, inhibition of MeCP2-TBL1 luminescence signal

| Structure (SMILES) | IC50 |
| --- | --- |
| CN(C)Cc1cccc(N/C(=C2\C(=O)Nc3cc(C(=O)N(C)C)ccc32)c2ccccc2)c1 [BIX02189, reference compound] | 28 µM |

Same assay, conditions: primary screen of Asinex library, single well per compound

| Structure (SMILES) | Inhibition percent |
| --- | --- |
| O=C(c1cccc(Nc2ncccn2)c1)N1C2CCC1CC(Cc1ccc3ccncc3c1)C2 (centres unmarked) [BDH_32356948] | 3.03 |
| CCN(CC)S(=O)(=O)N1CCC2(C/C=C/Cc3ccccc3OCC(=O)NC2)CC1 [BDG_33697034] | 1.72 |
| Cn1nccc1CN[C@@H]1C[C@@H](Oc2ccccc2)[C@H](O)[C@H]1N1CCN(c2ccccc2)CC1 [BDH_33787192] | -0.36 |
| COc1cccc([C@@H]2C[C@]3(C)NC(=O)CCCC[C@@H]3N2CC(=O)Nc2cc(F)ccc2C)c1 [BDH_33620981] | -1.41 |
| COc1cccc2c1OC(C)(C)[C@H]1CC3(CCN(C(=O)CCCN4C(=O)CNC4=O)CC3)CO[C@H]21 [BDG_33695254] | -4.47 |
| O=C(N1CCC(Cc2cccc3cccnc23)CC1)C1(c2ccccc2)CCOCC1 [BDH_32341683] | 6.68 |
| C[C@]12C[C@@H](c3ccc(F)cc3)N(C(=O)c3cccc(Oc4ncccn4)c3)[C@H]1CCCCC(=O)N2 [BDH_32362535] | -1.66 |
| CC(C)(C)c1ccc2c(c1)N(CC(=O)N1CCCCC1CCNC(=O)c1ccccc1)C(=O)CO2 (centres unmarked) [BDE_33630290] | -2.18 |
| O=C(O)COc1cccc(C(=O)N2C[C@@H](c3ccccc3F)[C@@]3(CCCCC(=O)N3)C2)c1 [BDG_34133280] | 2.13 |
| COCCC(=O)N[C@@]1(C)C[C@@H](c2ccc(F)cc2)O[C@@H](c2ccc(N3CCCC3=O)cc2)C1 [BDH_34036118] | 3.23 |
| CC(=O)N[C@@]12CN(C)CC[C@@H]1[C@@H](c1ccccc1)N(CC(=O)Nc1ccc(OC(F)F)cc1)C2 [BDH_33624452] | 0.21 |
| Cc1c(NC(=O)CN2[C@H](Cc3ccccc3)C[C@]3(C)NC(=O)CCC[C@H]23)cnn1C [BDH_24639966] | 0.23 |
| O=C(NCCc1ccccc1)[C@@H]1[C@H](O)[C@@H](c2ccc(F)cc2)CN1C(=O)Cc1c[nH]c2ccccc12 [BDH_34023215] | 2.61 |
| CC(=O)N[C@@]12CCN(S(=O)(=O)Cc3cccc(Cl)c3)C[C@@H]1[C@@H](c1ccccc1)N(C(C)=O)C2 [BDF_30361318] | -5.79 |
| O=C1OC2(CCCN(Cc3ccccc3OCc3ccccn3)CC2)CN1c1ccc(F)cc1 (centres unmarked) [BDH_32357695] | 1.61 |
| CC1(C)Oc2ccc(C(=O)O)cc2[C@H]2O[C@H]3CCSC[C@H]3C[C@@H]21 [BDG_51128812] | -0.06 |
| COc1ccc(C(=O)N2CCCC(Cc3cccc4ncccc34)C2)cc1NCc1ccncc1 (centres unmarked) [BDH_32359947] | -3.52 |

Same assay, conditions: primary screen of the Asinex library, sheet "Sargen output Asinex library", one well per compound

| Structure (SMILES) | Inhibition percent |
| --- | --- |
| Cc1nc(C2CCCN2C(=O)c2ccncc2)nc2c1CCC(=O)N2CCc1ccccc1 (centres unmarked) [BDE_26909882] | -1.75% |
| Cc1cnc(C(=O)N2CCC(Cc3nc(C)ncc3C(=O)NCc3ccccc3)CC2)cn1 [BDD_23852576] | 0.67% |
| Cc1c[nH]c(-c2cncc(C3CCCN(C(=O)c4ccnc(Cc5cccc(F)c5)c4)C3)n2)n1 (centres unmarked) [BDH_33521385] | -2.90% |
| Cc1nccc(C2CCCN2Cc2ccc(-c3ccccc3C(=O)O)cc2)n1 (centres unmarked) [BDE_30687639] | -0.80% |
| CC(=O)N1[C@@H](Cc2ccccc2)[C@@H]2C[C@@]3(C)[C@H](CCCC[C@@H]13)N2Cc1ccc(OCC(=O)O)cc1 [BDG_33507682] | 3.50% |
| COc1cccc(Cc2cccc(C3CCCN3C(=O)Cc3ccncc3)n2)c1 (centres unmarked) [BDD_27854270] | -2.15% |
| Cc1cc(Oc2ccccc2)nc(C2CCN(C(=O)C3(C)CCN(c4ncccn4)CC3)CC2)n1 [BDH_32359876] | 3.25% |
| O=C(c1ccccc1CN1CCCC1)N1CCC2(CC1)COC(Cc1cccc(F)c1)C2 (centres unmarked) [BDH_32342523] | 5.16% |
| COc1ccc(C)c(NC(=O)CN2CC[C@@H]3[C@@H](c4ccccc4)N(C(C)=O)C[C@]3(NC(C)=O)C2)c1 [BDH_33618463] | -3.37% |
| CNC(=O)c1ccc(-c2cccc(C3CN(CC(=O)NCc4ccccn4)CCO3)n2)cn1 (centres unmarked) [BDF_25324043] | 1.99% |
| CC(=O)N[C@H]1C[C@@H](C(=O)N(C)C)N(CC(=O)Nc2cccc(C(F)(F)F)c2)[C@H]1c1ccccc1 [BDH_33616368] | -1.15% |
| Cc1ccc(CC(=O)N2CCCC(c3ncc(C(=O)NCc4ccccc4)c(C)n3)C2)cc1 (centres unmarked) [BDC_23198767] | -0.69% |
| COc1ccc(S[C@@H]2CCO[C@@H](CCNC(=O)c3cc(OC)nc(OC)n3)C2)cc1 [BDF_22929100] | -1.50% |
| Cc1cccc(Cc2cccc(C3CCCN(C(=O)c4ccnc(-c5cnn(C)c5)c4)C3)n2)c1 (centres unmarked) [BDH_32362596] | 2.04% |
| COc1cccc([C@H]2C[C@@](C)(NC(=O)C(C)C)[C@@H]3CC[C@@H](C)C[C@H]3O2)c1OCCN(C)C [BDH_33687810] | -1.87% |
| C[C@@H]1CC[C@@H]2[C@@H](O1)c1cc(OCc3ccccc3)c(C=O)cc1OC2(C)C [BDG_34027484] | 0.0122% |
| Cc1nccn1Cc1cccc(C(=O)N2[C@H](Cc3ccccc3)C[C@]3(C)NC(=O)CCC[C@H]23)c1 [BDH_32370660] | -3.96% |
| Cc1cccc(Oc2cncc(C3CCCN(C(=O)c4ccc(-n5cccn5)nc4)C3)n2)c1 (centres unmarked) [BDH_32330488] | 5.13% |
| O=C(c1cccc(Oc2ncccn2)c1)N1CC[C@H]2[C@H]1CCCCC(=O)N2Cc1ccccc1 [BDH_32363931] | -2.83% |
| CC(C)N1CC[C@H]2O[C@H]3c4ccccc4OC(C)(C)[C@@H]3C[C@H]21 [BDG_33900670] | -3.00% |

Same assay, conditions: primary screen of the Asinex library, sheet "Sargen output Asinex library", one well per compound, Batch Ref. 1

| Structure (SMILES) | Inhibition percent |
| --- | --- |
| CNC(=O)c1cnn2c(C3CCCCN3C(=O)c3ccnc(Cc4ccccc4F)c3)ccnc12 (centres unmarked) [BDH_33521663] | -0.23% |
| Cc1ccc2c(c1)OC(C)(C)[C@H]1CC3(CO[C@H]21)CN(C(=O)CCn1nc(O)ccc1=O)C3 [BDG_33741109] | -2.39% |
| CNC(=O)c1cnn2c(C3CCCN(C(=O)c4ccnc(Cc5cccc(F)c5)c4)C3)ccnc12 (centres unmarked) [BDH_33521351] | -0.09% |
| COCCc1ncc(CN2CCCC2c2cc(Cc3cccc(OC)c3)cc(C)n2)cn1 (centres unmarked) [BDE_25403133] | -4.16% |
| O=C(COc1ncnc2ccccc12)N1CCCCC1c1ncc(Cc2cccc(Cl)c2)o1 (centres unmarked) [BDE_33513542] | 4.13% |
| C[C@]12C[C@@H](Cc3ccccc3)N(C(=O)c3ccc(OCCN4CCCC4)cc3)[C@H]1CCCC(=O)N2 [BDH_33629575] | -1.81% |
| C[C@@]12C[C@H]3[C@H](Cc4ccccc4)N[C@@H]1CCCC[C@@H]2N3C(=O)CNC(=O)c1ccccc1 [BDG_33503003] | 1.11% |
| COc1ccccc1C(=O)N1CCC2(CC1)Oc1ccc(Cl)cc1[C@H]1OCCC[C@@H]12 [BDG_33900472] | 10.01% |
| O=C1CCCC[C@]2(CN(Cc3ccc(-c4ccccc4)cc3)C[C@H]2c2cc(F)cc(F)c2)N1 [BDD_20406167] | 4.82% |
| CS(=O)(=O)c1ccc(CN2CCC3(CC2)Oc2ccc(Cl)cc2[C@H]2OCCC[C@@H]23)cc1 [BDG_33900656] | -0.96% |
| CC(C)[C@H](NC(=O)[C@H](C)N)C(=O)N1CCC[C@H]2O[C@H]3c4cc(Cl)ccc4OC(C)(C)[C@@H]3C[C@H]21 [BDG_34017951] | -1.63% |
| COc1ccc2c(c1)OC(C)(C)[C@H]1CC[C@H](C)O[C@H]21 [BDG_34023313] | -1.30% |
| CC1(C)Oc2ccccc2[C@H]2OCC3(CCN(C(=O)c4[nH]nc5c4CCCCC5)CC3)C[C@@H]21 [BDG_33694755] | 2.01% |
| O=C(Cn1ncc2ccccc2c1=O)N1CCCC(c2ncc(Cc3ccc(Cl)cc3)o2)C1 (centres unmarked) [BDE_33507934] | 0.79% |
| CC(C)CN1C(=O)C2(CCN(C(=O)Cn3cccnc3=O)CC2)CC1Cc1ccc(F)cc1 (centres unmarked) [BDH_33517008] | -0.88% |
| C[C@]12C[C@@H]3N[C@H]1CCC[C@H]2N(Cc1ccccc1C(=O)O)[C@H]3Cc1ccccc1 [BDG_33391350] | -0.20% |
| COc1ccccc1OCC(=O)N1[C@@H](Cc2ccccc2)[C@@H]2C[C@@]3(C)[C@H](CCC[C@@H]13)N2 [BDG_33503207] | 2.88% |
| COc1ccc(C)cc1NC(=O)CN1CC[C@@]2(NC(C)=O)CN(C(C)=O)[C@H](c3ccccc3)[C@H]2C1 [BDH_33625816] | 0.56% |
